Tested on: 616215-338-R-J1-PDC complex spheroid viability
Assay: Anticancer human tumor 616215-338-R-J1-PDC patient-derived colon adenocarcinoma cell line growth inhibition [RAS]
Conditions: for IC50: curve of first compound; for viability, T/C: stronger effect = lower value; active = viability on the fitted dose curve at most 10% of control; inactive = the rest
Summary of the method: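 Agents were tested in combination matrices in half-log decrements from a top concentration at or near clinical Cmax (10 microM if undetermined). Targets were multi-cell spheroids of tumour lines plus HUVEC and MSC stromal cells.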

[1] = second compound 0.00316 µM, first compound 0.0316 µM
[2] = second compound 0.00316 µM, first compound 0.1 µM
[3] = second compound 0.00316 µM, first compound 0.316 µM
[4] = second compound 0.00316 µM, first compound 1 µM
[5] = second compound 0.00316 µM, first compound 3.16 µM
[6] = second compound 0.00316 µM, first compound 10 µM
[7] = second compound 0.01 µM, first compound 0.0316 µM
[8] = second compound 0.01 µM, first compound 0.1 µM
[9] = second compound 0.01 µM, first compound 0.316 µM
[10] = second compound 0.01 µM, first compound 1 µM
[11] = second compound 0.01 µM, first compound 3.16 µM
[12] = second compound 0.01 µM, first compound 10 µM
[13] = second compound 0.0316 µM, first compound 0.0316 µM
[14] = second compound 0.0316 µM, first compound 0.1 µM
[15] = second compound 0.0316 µM, first compound 0.316 µM
[16] = second compound 0.0316 µM, first compound 1 µM
[17] = second compound 0.0316 µM, first compound 3.16 µM
[18] = second compound 0.0316 µM, first compound 10 µM
[19] = second compound 0.1 µM, first compound 0.0316 µM
[20] = second compound 0.1 µM, first compound 0.1 µM
[21] = second compound 0.1 µM, first compound 0.316 µM
[22] = second compound 0.1 µM, first compound 1 µM
[23] = second compound 0.1 µM, first compound 3.16 µM
[24] = second compound 0.1 µM, first compound 10 µM
[25] = second compound 0.316 µM, first compound 0.0316 µM
[26] = second compound 0.316 µM, first compound 0.1 µM
[27] = second compound 0.316 µM, first compound 0.316 µM
[28] = second compound 0.316 µM, first compound 1 µM
[29] = second compound 0.316 µM, first compound 3.16 µM
[30] = second compound 0.316 µM, first compound 10 µM
[31] = second compound 1 µM, first compound 0.0316 µM
[32] = second compound 1 µM, first compound 0.1 µM
[33] = second compound 1 µM, first compound 0.316 µM
[34] = second compound 1 µM, first compound 1 µM
[35] = second compound 1 µM, first compound 3.16 µM
[36] = second compound 1 µM, first compound 10 µM
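Also: spheroids exposed to agents for seven days before viability readout.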
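For viability, T/C in this document: 100% = DMSO vehicle control viability.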

CC1(O)CCCC1n1c(=O)c(C(F)F)cc2cnc(NC3CCN(S(C)(=O)=O)CC3)nc21 (stereo unspecified) + C=CC(=O)N1CCN(c2nc(OCC3CCCN3C)nc3c(F)c(-c4nc(N)cc(C)c4C(F)(F)F)c(Cl)cc23)C(C)C1
1100 nM: IC50 (second compound 0.0316 µM)
inactive: viability, T/C [1] 115% | viability, T/C [2] 125% | viability, T/C [3] 45.5% | viability, T/C [4] 52.3% | viability, T/C [5] 46.1% | viability, T/C [6] 3.51% | viability, T/C [7] 124% | viability, T/C [8] 115% | viability, T/C [9] 49.8% | viability, T/C [10] 60.2% | viability, T/C [11] 49.4% | viability, T/C [12] 3.84% | viability, T/C [13] 113% | viability, T/C [14] 113% | viability, T/C [15] 50.3% | viability, T/C [16] 51.6% | viability, T/C [17] 48.7% | viability, T/C [18] 1.4% | viability, T/C [19] 111% | viability, T/C [20] 114% | viability, T/C [21] 58% | viability, T/C [22] 55.4% | viability, T/C [23] 39.6% | viability, T/C [25] 117% | viability, T/C [26] 107% | viability, T/C [27] 54.8% | viability, T/C [28] 49% | viability, T/C [29] 44.5% | viability, T/C [31] 117% | viability, T/C [32] 108% | viability, T/C [33] 58.1% | viability, T/C [34] 53.2% | viability, T/C [35] 46.3%
1060 nM: IC50 (second compound 0.316 µM)
295 nM: IC50 (second compound 0.00316 µM)
1340 nM: IC50 (second compound 0.01 µM)
1180 nM: IC50 (second compound 1 µM)
active: viability, T/C [24] 1.02% | viability, T/C [30] 1.06% | viability, T/C [36] 2.1%
1130 nM: IC50 (second compound 0.1 µM)

CCN1CCN(Cc2ccc(Nc3ncc(F)c(-c4cc(F)c5nc(C)n(C(C)C)c5c4)n3)nc2)CC1 + C=CC(=O)N1CCN(c2nc(OCC3CCCN3C)nc3c(F)c(-c4nc(N)cc(C)c4C(F)(F)F)c(Cl)cc23)C(C)C1
> 1000 nM: IC50 (second compound 0.00316 µM) | IC50 (second compound 0.01 µM) | IC50 (second compound 0.0316 µM) | IC50 (second compound 0.1 µM) | IC50 (second compound 0.316 µM) | IC50 (second compound 1 µM)
inactive: viability, T/C (second compound 0.00316 µM, first compound 0.00316 µM) 110% | viability, T/C (second compound 0.00316 µM, first compound 0.01 µM) 110% | viability, T/C [1] 121% | viability, T/C [2] 118% | viability, T/C [3] 150% | viability, T/C [4] 65% | viability, T/C (second compound 0.01 µM, first compound 0.00316 µM) 112% | viability, T/C (second compound 0.01 µM, first compound 0.01 µM) 120% | viability, T/C [7] 114% | viability, T/C [8] 123% | viability, T/C [9] 145% | viability, T/C [10] 56.2% | viability, T/C (second compound 0.0316 µM, first compound 0.00316 µM) 113% | viability, T/C (second compound 0.0316 µM, first compound 0.01 µM) 124% | viability, T/C [13] 116% | viability, T/C [14] 119% | viability, T/C [15] 143% | viability, T/C [16] 71.4% | viability, T/C (second compound 0.1 µM, first compound 0.00316 µM) 102% | viability, T/C (second compound 0.1 µM, first compound 0.01 µM) 102% | viability, T/C [19] 118% | viability, T/C [20] 117% | viability, T/C [21] 141% | viability, T/C [22] 64.2% | viability, T/C (second compound 0.316 µM, first compound 0.00316 µM) 114% | viability, T/C (second compound 0.316 µM, first compound 0.01 µM) 109% | viability, T/C [25] 113% | viability, T/C [26] 131% | viability, T/C [27] 131% | viability, T/C [28] 59.3% | viability, T/C (second compound 1 µM, first compound 0.00316 µM) 117% | viability, T/C (second compound 1 µM, first compound 0.01 µM) 116% | viability, T/C [31] 109% | viability, T/C [32] 120% | viability, T/C [33] 154% | viability, T/C [34] 67.7%

C[C@@H](NC(=O)c1ncnc(N)c1Cl)c1ncc(C(=O)Nc2cc(C(F)(F)F)c(Cl)cn2)s1 + C=CC(=O)N1CCN(c2nc(OCC3CCCN3C)nc3c(F)c(-c4nc(N)cc(C)c4C(F)(F)F)c(Cl)cc23)C(C)C1
inactive: viability, T/C [1] 109% | viability, T/C [2] 111% | viability, T/C [3] 120% | viability, T/C [4] 140% | viability, T/C [5] 118% | viability, T/C [6] 53.5% | viability, T/C [7] 106% | viability, T/C [8] 114% | viability, T/C [9] 121% | viability, T/C [10] 120% | viability, T/C [11] 97.1% | viability, T/C [12] 59.9% | viability, T/C [13] 102% | viability, T/C [14] 112% | viability, T/C [15] 114% | viability, T/C [16] 119% | viability, T/C [17] 122% | viability, T/C [18] 59.5% | viability, T/C [19] 118% | viability, T/C [20] 103% | viability, T/C [21] 113% | viability, T/C [22] 114% | viability, T/C [23] 107% | viability, T/C [24] 48.6% | viability, T/C [25] 114% | viability, T/C [26] 104% | viability, T/C [27] 113% | viability, T/C [28] 117% | viability, T/C [29] 116% | viability, T/C [30] 65% | viability, T/C [31] 112% | viability, T/C [32] 98.6% | viability, T/C [33] 111% | viability, T/C [34] 131% | viability, T/C [35] 112% | viability, T/C [36] 61.2%
> 10000 nM: IC50 (second compound 0.00316 µM) | IC50 (second compound 0.01 µM) | IC50 (second compound 0.0316 µM) | IC50 (second compound 0.316 µM) | IC50 (second compound 1 µM)
9750 nM: IC50 (second compound 0.1 µM)

Reference: PubChem BioAssay AID2060898 (Molecular Pharmacology Branch, DTP, NCI, 2025)
